Laboratory results: patent publication US20040023228A1, “System and method for analysing active ingredients designed to influence intra-cellular processes” (priority 2000, published 2004)

System: tubulin
Assay: FCS measurement of incorporation of rhodamine-labeled tubulin dimers into preformed microtubules (exchange kinetics in the assembly equilibrium)
Details: 10^−5M tubulin assembly mixture, 10^−9M rhodamine-labeled tubulin, 37° C.

SMILES | concentration up to which the action on the described kinetics can be tracked
CC(=O)O[C@H]1C(=O)[C@@]2(C)[C@H]([C@H](OC(=O)c3ccccc3)[C@]3(O)C[C@H](OC(=O)[C@H](O)[C@@H](NC(=O)c4ccccc4)c4ccccc4)C(C)=C1C3(C)C)[C@]1(OC(C)=O)CO[C@@H]1C[C@@H]2O [taxol, paclitaxel] | 10^−11 M
COC(=O)Nc1nc2ccc(C(=O)c3cccs3)cc2[nH]1 [nocodazole] | 10^−11 M
